The structures appear in SMILES notation. pIC50: −log10 of the molar value. A value given as a limit tells only on which side of the number the result lay.

What all share (assay): Growth inhibitory activity of compounds on BaF3 cell lines stably transfected with kinase (MTS, 48 h)
Common to all, as to assay type: cell-based

Assay [1] deals with T1, various mutants of kinase EGFR (BaF3 cell lines stably transfected with kinase) (Homo sapiens, UniProt P00533, T790M, form not given).
T1 construct: other: BaF3 cells stably transfected with EGFR Δ19Del/T790M; MTS, 48 h; other: BaF3 cell line stably transfected with EGFR Δ19Del/T790M; MTS, 48
The note with it: BaF3 cell line stably transfected with EGFR Δ19Del/T790M, read-out: Δ19Del/ T790M growth inhibitory activity IC50. The method in brief:
(§1)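 Transfected cells received compound (max 10 µM, 8 concentrations) for 48 h; MTS readout at 490 nm yielded IC50.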

Assay [2] concerns the target T2, various mutants of kinase EGFR (BaF3 cell lines stably transfected with kinase) (Homo sapiens, UniProt P00533).
T2 construct: other: BaF3 cells stably transfected with EGFR Δ19Del; MTS, 48 h; other: BaF3 cell line stably transfected with EGFR Δ19Del
To be noted: BaF3 cell line stably transfected with EGFR Δ19Del, read-out: Δ19Del growth inhibitory activity IC50. In a few lines:
as §1

The target of assay [3] is T3, various mutants of kinase EGFR (BaF3 cell lines stably transfected with kinase) (Homo sapiens, UniProt P00533, C797S/L858R/T790M).
T3 construct: expressed in transfected cells; host or cells: BaF3
To be noted: BaF3 cell line stably transfected with EGFR L858R/T790M/C797S, read-out: L858R/T790M/ C797S growth inhibitory activity IC50. In a few lines:
as §1

Assay [4] has as its target T4, various mutants of kinase EGFR (BaF3 cell lines stably transfected with kinase) (Homo sapiens, UniProt P00533, T790M/C797S, form not given).
T4 construct: other: BaF3 cells stably transfected with EGFR Δ19Del/T790M/C797S; MTS, 48; other: BaF3 cell line stably transfected with EGFR Δ19Del/T790M/C7
The note with it: BaF3 cell line stably transfected with EGFR Δ19Del/T790M/C797S, read-out: Δ19Del/T790M/ C797S growth inhibitory activity IC50. The method in brief: as §1

Assay [5] deals with T5, various mutants of kinase EGFR (BaF3 cell lines stably transfected with kinase) (Homo sapiens, UniProt P00533, L858R).
T5 construct: expressed in transfected cells; host or cells: BaF3
The note with it: BaF3 cell line stably transfected with EGFR L858R, read-out: L858R growth inhibitory activity IC50. The method in brief: as §1

Assay [6] addresses T6, various mutants of kinase EGFR (BaF3 cell lines stably transfected with kinase) (Homo sapiens, UniProt P00533, L858R/T790M).
T6 construct: expressed in transfected cells; host or cells: BaF3
The note with it: BaF3 cell line stably transfected with EGFR L858R/T790M, read-out: L858R/ T790M growth inhibitory activity IC50. The method in brief:
as §1

T4 sequence (P00533 with tags, fused parts or gaps DEL746-750/T790M/C797S, form open): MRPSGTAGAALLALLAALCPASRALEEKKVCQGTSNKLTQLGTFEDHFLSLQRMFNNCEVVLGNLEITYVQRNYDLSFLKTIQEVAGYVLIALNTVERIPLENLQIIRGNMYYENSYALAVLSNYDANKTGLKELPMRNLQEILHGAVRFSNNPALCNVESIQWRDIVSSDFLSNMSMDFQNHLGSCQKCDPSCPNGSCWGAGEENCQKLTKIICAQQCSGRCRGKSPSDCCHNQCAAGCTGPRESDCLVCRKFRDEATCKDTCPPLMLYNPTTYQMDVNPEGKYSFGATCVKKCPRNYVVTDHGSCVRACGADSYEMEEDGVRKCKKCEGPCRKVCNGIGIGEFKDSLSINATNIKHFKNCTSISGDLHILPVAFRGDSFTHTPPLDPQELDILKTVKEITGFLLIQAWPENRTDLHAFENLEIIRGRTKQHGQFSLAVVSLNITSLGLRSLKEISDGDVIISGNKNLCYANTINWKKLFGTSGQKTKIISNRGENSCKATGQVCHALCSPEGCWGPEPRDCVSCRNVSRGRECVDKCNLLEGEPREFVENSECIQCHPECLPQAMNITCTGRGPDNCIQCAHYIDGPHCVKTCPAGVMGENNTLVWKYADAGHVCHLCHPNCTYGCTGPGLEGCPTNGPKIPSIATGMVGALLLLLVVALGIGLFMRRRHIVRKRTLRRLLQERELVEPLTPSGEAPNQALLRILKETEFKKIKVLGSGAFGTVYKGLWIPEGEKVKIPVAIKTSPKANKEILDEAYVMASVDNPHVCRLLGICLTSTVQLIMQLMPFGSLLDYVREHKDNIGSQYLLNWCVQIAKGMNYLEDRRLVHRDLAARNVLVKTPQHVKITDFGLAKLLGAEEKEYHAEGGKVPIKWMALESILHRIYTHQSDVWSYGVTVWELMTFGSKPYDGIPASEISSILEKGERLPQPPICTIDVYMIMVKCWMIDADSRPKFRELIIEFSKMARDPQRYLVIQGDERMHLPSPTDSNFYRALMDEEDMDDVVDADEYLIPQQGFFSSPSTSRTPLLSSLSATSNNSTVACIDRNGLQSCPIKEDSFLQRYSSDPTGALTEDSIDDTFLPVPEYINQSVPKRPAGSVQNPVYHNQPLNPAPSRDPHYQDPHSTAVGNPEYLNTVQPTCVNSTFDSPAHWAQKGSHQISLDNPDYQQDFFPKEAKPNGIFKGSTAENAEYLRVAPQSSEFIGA
T6 sequence (P00533 25-1210 T790M/L858R): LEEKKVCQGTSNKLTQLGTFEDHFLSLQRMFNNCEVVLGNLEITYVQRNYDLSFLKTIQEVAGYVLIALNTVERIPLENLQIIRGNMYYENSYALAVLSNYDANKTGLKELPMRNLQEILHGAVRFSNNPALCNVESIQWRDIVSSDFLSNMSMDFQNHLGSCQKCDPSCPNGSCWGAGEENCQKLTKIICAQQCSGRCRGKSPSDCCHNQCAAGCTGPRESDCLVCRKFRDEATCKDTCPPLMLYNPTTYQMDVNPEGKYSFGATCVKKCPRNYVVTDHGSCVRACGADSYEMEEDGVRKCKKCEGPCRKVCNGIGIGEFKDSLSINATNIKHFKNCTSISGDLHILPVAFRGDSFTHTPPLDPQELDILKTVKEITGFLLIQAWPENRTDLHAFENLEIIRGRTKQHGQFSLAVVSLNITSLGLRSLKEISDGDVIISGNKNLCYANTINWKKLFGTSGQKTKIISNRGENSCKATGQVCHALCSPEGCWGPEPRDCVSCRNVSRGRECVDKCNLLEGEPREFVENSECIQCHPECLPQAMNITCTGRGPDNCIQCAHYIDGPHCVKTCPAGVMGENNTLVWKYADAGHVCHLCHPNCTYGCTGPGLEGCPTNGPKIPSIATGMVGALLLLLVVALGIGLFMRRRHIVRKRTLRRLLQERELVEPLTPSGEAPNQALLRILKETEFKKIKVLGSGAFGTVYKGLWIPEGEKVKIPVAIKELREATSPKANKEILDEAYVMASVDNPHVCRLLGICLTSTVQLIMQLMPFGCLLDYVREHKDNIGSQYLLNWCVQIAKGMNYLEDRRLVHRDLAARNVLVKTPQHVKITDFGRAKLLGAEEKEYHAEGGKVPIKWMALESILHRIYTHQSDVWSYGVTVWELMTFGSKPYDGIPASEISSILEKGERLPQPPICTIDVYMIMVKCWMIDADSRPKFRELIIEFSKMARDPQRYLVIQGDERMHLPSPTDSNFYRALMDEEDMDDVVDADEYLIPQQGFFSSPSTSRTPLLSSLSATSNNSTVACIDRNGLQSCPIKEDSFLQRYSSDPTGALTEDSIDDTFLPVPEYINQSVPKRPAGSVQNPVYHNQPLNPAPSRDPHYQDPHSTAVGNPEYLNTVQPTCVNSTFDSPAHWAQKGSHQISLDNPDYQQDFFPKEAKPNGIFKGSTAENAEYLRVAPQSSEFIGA
T1 sequence (P00533 with tags, fused parts or gaps DEL746-750/T790M, form open): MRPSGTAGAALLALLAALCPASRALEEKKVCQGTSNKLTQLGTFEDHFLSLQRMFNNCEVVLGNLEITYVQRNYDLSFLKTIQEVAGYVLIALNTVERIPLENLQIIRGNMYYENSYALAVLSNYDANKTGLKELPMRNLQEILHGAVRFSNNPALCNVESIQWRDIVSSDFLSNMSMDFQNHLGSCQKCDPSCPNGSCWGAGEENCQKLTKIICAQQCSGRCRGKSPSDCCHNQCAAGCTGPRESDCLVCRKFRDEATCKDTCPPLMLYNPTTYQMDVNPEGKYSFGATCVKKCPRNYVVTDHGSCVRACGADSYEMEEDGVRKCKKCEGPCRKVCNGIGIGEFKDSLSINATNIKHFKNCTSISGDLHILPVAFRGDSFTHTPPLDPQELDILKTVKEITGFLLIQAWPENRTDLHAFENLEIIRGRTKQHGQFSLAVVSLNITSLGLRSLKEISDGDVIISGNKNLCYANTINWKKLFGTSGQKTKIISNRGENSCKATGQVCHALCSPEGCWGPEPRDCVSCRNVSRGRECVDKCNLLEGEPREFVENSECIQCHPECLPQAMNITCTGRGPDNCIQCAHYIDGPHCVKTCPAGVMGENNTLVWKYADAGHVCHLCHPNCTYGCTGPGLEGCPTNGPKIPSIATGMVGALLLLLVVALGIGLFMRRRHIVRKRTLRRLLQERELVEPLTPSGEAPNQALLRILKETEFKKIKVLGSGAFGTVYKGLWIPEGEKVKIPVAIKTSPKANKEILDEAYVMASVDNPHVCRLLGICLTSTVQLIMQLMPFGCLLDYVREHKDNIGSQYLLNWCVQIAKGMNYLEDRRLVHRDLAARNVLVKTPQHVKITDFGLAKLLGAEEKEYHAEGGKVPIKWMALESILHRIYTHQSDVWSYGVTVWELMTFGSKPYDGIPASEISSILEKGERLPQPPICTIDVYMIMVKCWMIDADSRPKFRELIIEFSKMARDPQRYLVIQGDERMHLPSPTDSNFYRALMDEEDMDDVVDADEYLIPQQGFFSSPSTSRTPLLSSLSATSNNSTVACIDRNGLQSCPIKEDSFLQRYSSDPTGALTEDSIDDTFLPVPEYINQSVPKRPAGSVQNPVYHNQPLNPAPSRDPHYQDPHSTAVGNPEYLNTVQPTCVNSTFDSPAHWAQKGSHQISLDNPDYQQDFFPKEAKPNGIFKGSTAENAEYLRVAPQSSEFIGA
T5 sequence (P00533 25-1210 L858R): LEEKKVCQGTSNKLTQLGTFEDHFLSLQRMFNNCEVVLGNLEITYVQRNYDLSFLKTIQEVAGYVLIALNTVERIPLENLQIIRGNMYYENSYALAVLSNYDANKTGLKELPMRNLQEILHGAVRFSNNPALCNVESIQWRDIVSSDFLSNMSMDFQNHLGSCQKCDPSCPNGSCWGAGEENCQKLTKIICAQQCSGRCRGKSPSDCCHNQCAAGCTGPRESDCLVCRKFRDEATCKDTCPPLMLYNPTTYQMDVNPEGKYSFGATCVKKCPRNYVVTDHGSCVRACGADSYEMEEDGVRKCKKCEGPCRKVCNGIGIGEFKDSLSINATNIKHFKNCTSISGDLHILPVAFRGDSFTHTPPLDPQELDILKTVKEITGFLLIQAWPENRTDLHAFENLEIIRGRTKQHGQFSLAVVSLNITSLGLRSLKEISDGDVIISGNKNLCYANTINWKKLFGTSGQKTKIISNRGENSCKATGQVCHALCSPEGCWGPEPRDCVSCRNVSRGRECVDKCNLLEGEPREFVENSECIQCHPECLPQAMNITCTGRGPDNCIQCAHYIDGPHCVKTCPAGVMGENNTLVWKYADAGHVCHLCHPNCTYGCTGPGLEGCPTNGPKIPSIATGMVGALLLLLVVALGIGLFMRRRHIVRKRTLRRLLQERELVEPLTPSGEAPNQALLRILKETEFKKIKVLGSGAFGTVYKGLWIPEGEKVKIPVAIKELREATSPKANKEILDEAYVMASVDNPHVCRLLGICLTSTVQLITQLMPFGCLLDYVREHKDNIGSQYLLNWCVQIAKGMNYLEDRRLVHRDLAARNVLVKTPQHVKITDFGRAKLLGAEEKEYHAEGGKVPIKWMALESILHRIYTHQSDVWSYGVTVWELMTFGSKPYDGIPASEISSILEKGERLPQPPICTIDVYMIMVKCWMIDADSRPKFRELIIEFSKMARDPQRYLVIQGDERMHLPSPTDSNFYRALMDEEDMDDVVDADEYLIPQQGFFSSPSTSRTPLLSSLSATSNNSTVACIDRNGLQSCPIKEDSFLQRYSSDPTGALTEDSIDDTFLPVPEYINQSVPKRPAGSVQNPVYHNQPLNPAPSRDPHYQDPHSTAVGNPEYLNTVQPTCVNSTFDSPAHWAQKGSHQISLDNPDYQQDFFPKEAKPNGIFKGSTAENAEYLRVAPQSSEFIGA

Regarding `CCc1cc(Nc2nc(Nc3ccc4nccnc4c3N(C)S(C)(=O)=O)c3sccc3n2)c(OC)nc1N1CCC(N2CCN(C)CC2)CC1` [II-1-6], the pIC50 in assay [1] was 5.60 to 6.30; in assay [2], 5.60 to 6.30; in assay [3], 6.30 to 7.30; in assay [4], 6.30 to 7.30; in assay [5], 5.60 to 6.30; in assay [6], 6.30 to 7.30.

With `CCc1cc(Nc2nc(Nc3ccc4nccnc4c3N(C)S(C)(=O)=O)c3sccc3n2)c(OC(F)(F)F)cc1N1CCC(N2CCN(C)CC2)CC1` [II-1-8], the pIC50 is 6.30 to 7.30 in assay [1]; 5.60 to 6.30 in assay [2]; 6.30 to 7.30 in assay [3]; 6.30 to 7.30 in assay [4]; 5.60 to 6.30 in assay [5]; 6.30 to 7.30 in assay [6].

As for `C=Cc1cc(Nc2nc(Nc3ccc4nccnc4c3N(C)S(C)(=O)=O)c3sccc3n2)c(OC(F)(F)F)cc1N1CCC(N2CCN(C)CC2)CC1` [II-1-9], the pIC50 in assay [1] was 6.30 to 7.30; in assay [2], 5.60 to 6.30; in assay [3] it was 6.30 to 7.30; in assay [4] it was no less than 7.30; in assay [5], 5.60 to 6.30; in assay [6] it was 6.30 to 7.30.

Take `COc1cc(N2CCC(N3CCN(C)CC3)CC2)c(Cc2ccccc2)cc1Nc1nc(Nc2ccc3nccnc3c2N(C)S(C)(=O)=O)c2sccc2n1` [II-1-11]: the pIC50 in assay [1] is 6.30 to 7.30; in assay [2] it was 5.60 to 6.30; in assay [3] it was 5.60 to 6.30; in assay [4], 5.60 to 6.30; in assay [5], 5.60 to 6.30; in assay [6], 5.60 to 6.30.

Turning to `COc1cc(N2CCN(C)CC2)c(C)cc1Nc1nc(Nc2ccc3nccnc3c2N(C)S(C)(=O)=O)c2sccc2n1` [II-1-12], the pIC50 in assay [1] is 5.60 to 6.30; in assay [2], 5.60 to 6.30; in assay [3], 6.30 to 7.30; in assay [4], 6.30 to 7.30; in assay [5], 5.60 to 6.30; in assay [6], 6.30 to 7.30.

As to `COc1cc(N2CCC(N(C)C)CC2)c(C)cc1Nc1nc(Nc2ccc3nccnc3c2N(C)S(C)(=O)=O)c2sccc2n1` [II-1-13], the pIC50 in assay [1] was 6.30 to 7.30; in assay [2], 5.60 to 6.30; in assay [3], 6.30 to 7.30; in assay [4] it was no less than 7.30; in assay [5] it was 5.60 to 6.30; in assay [6], 6.30 to 7.30.

As to `COc1cc(N2CCC(N(C)C)C2)c(C)cc1Nc1nc(Nc2ccc3nccnc3c2N(C)S(C)(=O)=O)c2sccc2n1` (stereo not drawn) [II-1-14], the pIC50 in assay [1] is 5.60 to 6.30; in assay [2], 5.60 to 6.30; in assay [3], 5.60 to 6.30; in assay [4] it was 6.30 to 7.30; in assay [5], 5.60 to 6.30; in assay [6], 6.30 to 7.30.

In the case of `CCc1cc(Nc2nc(Nc3ccc4nccnc4c3N(C)S(C)(=O)=O)c3sccc3n2)c(OC)cc1N1CCN(C)CC1` [II-1-15], the pIC50 is 5.60 to 6.30 in assay [1]; 5.60 to 6.30 in assay [2]; 6.30 to 7.30 in assay [3]; 6.30 to 7.30 in assay [4]; 5.60 to 6.30 in assay [5]; 5.60 to 6.30 in assay [6].

Consider `CCc1cc(Nc2nc(Nc3ccc4nccnc4c3N(C)S(C)(=O)=O)c3sccc3n2)c(OC)cc1N1CCC(N(C)C)CC1` [II-1-16], for which the pIC50 is 6.30 to 7.30 in assay [1]; 5.60 to 6.30 in assay [2]; 6.30 to 7.30 in assay [3]; no less than 7.30 in assay [4]; 6.30 to 7.30 in assay [5]; 6.30 to 7.30 in assay [6].

`CCc1cc(Nc2nc(Nc3ccc4nccnc4c3N(C)S(C)(=O)=O)c3sccc3n2)c(OC)cc1N1CCC(N(C)C)C1` (stereo not drawn) [II-1-17]: the pIC50 in assay [1], in assay [2], in assay [3], in assay [4], in assay [5] and in assay [6] was 6.30 to 7.30 throughout.

Regarding `COc1cc(N2CCC(N3CCN(C)CC3)CC2)c(C)cc1Nc1nc(Nc2ccc3nccnc3c2N(C)S(C)(=O)=O)c2[nH]ccc2n1` [II-1-19], the pIC50 in assay [1] was 5.60 to 6.30; in assay [2], 5.60 to 6.30; in assay [3], 5.60 to 6.30; in assay [4] it was 5.60 to 6.30; in assay [5] it was 5.60 to 6.30; in assay [6] it was 6.30 to 7.30.

With `CCc1cc(Nc2nc(Nc3ccc4nccnc4c3N(C)S(C)(=O)=O)c3[nH]ccc3n2)c(OC)cc1N1CCC(N2CCN(C)CC2)CC1` [II-1-20], the pIC50 is 5.60 to 6.30 in assay [1]; 5.60 to 6.30 in assay [2]; 5.60 to 6.30 in assay [3]; 6.30 to 7.30 in assay [4]; 6.30 to 7.30 in assay [5]; 6.30 to 7.30 in assay [6].

In the case of `CCc1cc(Nc2nc(Nc3ccc4nccnc4c3N(C)S(C)(=O)=O)c3[nH]ccc3n2)c(OC)nc1N1CCC(N2CCN(C)CC2)CC1` [II-1-21], the pIC50 in assay [1] is 6.30 to 7.30; in assay [2] it was 6.30 to 7.30; in assay [3], 6.30 to 7.30; in assay [4], 6.30 to 7.30; in assay [5], 6.30 to 7.30; in assay [6], 5.60 to 6.30.

With `CCc1cc(Nc2nc(Nc3ccc4nccnc4c3N(C)S(C)(=O)=O)c3[nH]ccc3n2)c(OC(F)(F)F)cc1N1CCC(N2CCN(C)CC2)CC1` [II-1-22], the pIC50 in assay [1] is 6.30 to 7.30; in assay [2], 6.30 to 7.30; in assay [3], 6.30 to 7.30; in assay [4] it was 6.30 to 7.30; in assay [5], 5.60 to 6.30; in assay [6], 6.30 to 7.30.

Take `C=Cc1cc(Nc2nc(Nc3ccc4nccnc4c3N(C)S(C)(=O)=O)c3[nH]ccc3n2)c(OC(F)(F)F)cc1N1CCC(N2CCN(C)CC2)CC1` [II-1-23]: the pIC50 in assay [1] is 6.30 to 7.30; in assay [2] it was 6.30 to 7.30; in assay [3] it was 6.30 to 7.30; in assay [4], no less than 7.30; in assay [5], 6.30 to 7.30; in assay [6], 6.30 to 7.30.

As for `COc1cc(N2CCC(N3CCN(C)CC3)CC2)ccc1Nc1nc(Nc2ccc3nccnc3c2N(C)S(C)(=O)=O)c2occc2n1` [II-1-24], the pIC50 in assay [1], in assay [2], in assay [3], in assay [4], in assay [5] and in assay [6] was 5.60 to 6.30 in each case.

In the case of `COc1cc(N2CCC(N3CCN(C)CC3)CC2)c(C)cc1Nc1nc(Nc2ccc3nccnc3c2N(C)S(C)(=O)=O)c2occc2n1` [II-1-25], the pIC50 was 6.30 to 7.30 in assay [1]; 6.30 to 7.30 in assay [2]; 6.30 to 7.30 in assay [3]; no less than 7.30 in assay [4]; 6.30 to 7.30 in assay [5]; 6.30 to 7.30 in assay [6].

As to `CCc1cc(Nc2nc(Nc3ccc4nccnc4c3N(C)S(C)(=O)=O)c3occc3n2)c(OC)cc1N1CCC(N2CCN(C)CC2)CC1` [II-1-26], the pIC50 in assay [1] was no less than 7.30; in assay [2] it was 6.30 to 7.30; in assay [3], no less than 7.30; in assay [4] it was no less than 7.30; in assay [5], 6.30 to 7.30; in assay [6], no less than 7.30.

Consider `COc1nc(N2CCC(N3CCN(C)CC3)CC2)ccc1Nc1nc(Nc2ccc3nccnc3c2N(C)S(C)(=O)=O)c2[nH]ccc2n1` [II-1-27], for which the pIC50 in assay [1], in assay [2], in assay [3], in assay [4], in assay [5] and in assay [6] was 5.60 to 6.30 throughout.

On to `COc1nc(N2CCC(N3CCN(C)CC3)CC2)c(C)cc1Nc1nc(Nc2ccc3nccnc3c2N(C)S(C)(=O)=O)c2[nH]ccc2n1` [II-1-28], for which the pIC50 in assay [1], in assay [2], in assay [3], in assay [4], in assay [5] and in assay [6] was 5.60 to 6.30 each time.

As to `CN1CCN(C2CCN(c3ccc(Nc4nc(Nc5ccc6nccnc6c5N(C)S(C)(=O)=O)c5[nH]ccc5n4)c(OC(F)(F)F)c3)CC2)CC1` [II-1-29], the pIC50 was 5.60 to 6.30 in assay [1]; 5.60 to 6.30 in assay [2]; 5.60 to 6.30 in assay [3]; 6.30 to 7.30 in assay [4]; 5.60 to 6.30 in assay [5]; 5.60 to 6.30 in assay [6].

On to `COc1cc(N2CCC(N(C)C)CC2)c(C)cc1Nc1nc(Nc2ccc3nccnc3c2N(C)S(C)(=O)=O)c2[nH]ccc2n1` [II-1-31], for which the pIC50 is 5.60 to 6.30 in assay [1]; 5.60 to 6.30 in assay [2]; 5.60 to 6.30 in assay [3]; 6.30 to 7.30 in assay [4]; 5.60 to 6.30 in assay [5]; 5.60 to 6.30 in assay [6].

The values are drawn from patent US20230310428A1, “EGFR INHIBITOR AND PREPARATION METHOD AND USE THEREOF” (HONGYUN BIOTECH CO., LTD., priority 2020, published 2023).
